From patent US10399988B2, “4-aminopyrazolo[3,4-d]pyrimidinylazabicyclo derivatives and pharmaceutical composition comprising the same” (Daewoong Pharmaceutical Co., Ltd., priority 2016, dated 2019)
Where a name gives a salt, the structure may show the parent alone.

Key:
ITK = molecular target: T1, ITK (Homo sapiens, UniProt Q08881); assay: Inhibitory activity against ITK (ADP-Glo + ITK Kinase enzyme system kit); selectivity BTK vs. ITK; format: biochemical; conditions: for IC50: ITK enzyme 0.4 ng/uL, ATP 25 uM, luminescence, duplicate; for Selectivity (based on IC50): selectivity for the inhibitory activity of BTK vs. ITK, Equation 1
T1 construct: purchased Promega Corporation
T1 sequence (Q08881 1-620): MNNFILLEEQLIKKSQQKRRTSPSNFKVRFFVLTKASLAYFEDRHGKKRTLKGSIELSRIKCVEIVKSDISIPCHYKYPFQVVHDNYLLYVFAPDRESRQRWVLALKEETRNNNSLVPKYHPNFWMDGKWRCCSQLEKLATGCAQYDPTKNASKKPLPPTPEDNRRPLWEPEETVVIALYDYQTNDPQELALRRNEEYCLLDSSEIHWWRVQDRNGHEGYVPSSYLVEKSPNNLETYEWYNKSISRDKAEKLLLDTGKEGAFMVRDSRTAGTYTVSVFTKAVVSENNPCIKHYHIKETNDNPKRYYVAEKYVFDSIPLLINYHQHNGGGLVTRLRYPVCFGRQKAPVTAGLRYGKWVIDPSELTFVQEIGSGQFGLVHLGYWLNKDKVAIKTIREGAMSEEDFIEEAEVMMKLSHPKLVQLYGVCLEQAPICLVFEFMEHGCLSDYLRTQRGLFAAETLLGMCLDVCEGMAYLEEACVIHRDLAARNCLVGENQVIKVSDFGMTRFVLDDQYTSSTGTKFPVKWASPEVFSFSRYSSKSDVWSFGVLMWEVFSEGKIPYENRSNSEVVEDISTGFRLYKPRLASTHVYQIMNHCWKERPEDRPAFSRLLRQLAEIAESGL

BTK = BTK (Homo sapiens, UniProt Q06187); assay: Inhibitory activity against BTK (ADP-Glo + BTK Kinase enzyme system kit)
Sequence of BTK (Q06187 whole entry): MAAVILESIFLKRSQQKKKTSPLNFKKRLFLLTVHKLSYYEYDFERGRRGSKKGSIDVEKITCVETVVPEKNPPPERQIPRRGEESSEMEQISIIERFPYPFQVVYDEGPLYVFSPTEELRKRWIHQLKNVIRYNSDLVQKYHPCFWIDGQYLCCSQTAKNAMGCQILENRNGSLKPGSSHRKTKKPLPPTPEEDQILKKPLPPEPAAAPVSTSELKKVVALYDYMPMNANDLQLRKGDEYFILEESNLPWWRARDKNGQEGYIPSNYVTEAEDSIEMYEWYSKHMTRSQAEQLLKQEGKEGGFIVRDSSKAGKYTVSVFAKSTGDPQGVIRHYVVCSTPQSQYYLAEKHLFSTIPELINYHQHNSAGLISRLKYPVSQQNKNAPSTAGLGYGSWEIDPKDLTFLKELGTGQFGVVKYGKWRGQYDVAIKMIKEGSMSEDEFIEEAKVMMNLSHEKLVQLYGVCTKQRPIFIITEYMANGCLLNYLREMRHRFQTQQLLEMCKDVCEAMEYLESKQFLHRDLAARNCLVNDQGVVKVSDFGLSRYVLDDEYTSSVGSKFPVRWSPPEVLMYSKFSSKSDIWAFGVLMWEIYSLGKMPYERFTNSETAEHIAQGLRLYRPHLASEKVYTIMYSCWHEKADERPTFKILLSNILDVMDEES

Row | SMILES | IC50 (ITK) | Selectivity (based on IC50) (ITK) | IC50 (BTK)
1 | C=CC(=O)N1CC2CC1C(n1nc(-c3ccc(Oc4ccccc4)cc3)c3c(N)ncnc31)C2 (stereo not drawn) [Ex. 1, 1-(6-(4-amino-3-(4-phenoxyphenyl)-1H-pyrazolo[3,4-d]pyrimidin-1-yl)-2-azabicyclo[2.2.1]heptan-2-yl)prop-2-en-1-one] | 189 nM | 89.9 | 2.1 nM
2 | C#CC(=O)N1CC2CC1C(n1nc(-c3ccc(Oc4ccccc4)cc3)c3c(N)ncnc31)C2 (stereo not drawn) [Ex. 2, 1-(6-(4-amino-3-(4-phenoxyphenyl)-1H-pyrazolo[3,4-d]pyrimidin-1-yl)-2-azabicyclo[2.2.1]heptan-2-yl)prop-2-yn-1-one] | 26.3 nM | 32.9 | 0.8 nM
3 | C#CC(=O)N1CC2CC1C(n1nc(-c3ccc(C(=O)Nc4ccccn4)cc3)c3c(N)ncnc31)C2 (stereo not drawn) [Ex. 4, 4-(4-amino-1-(2-propioloyl-2-azabicyclo[2.2.1]heptan-6-yl)-1H-pyrazolo[3,4-d]pyrimidin-3-yl)-N-(pyridin-2-yl)benzamide] | 104 nM | 37.1 | 2.8 nM
4 | C=CC(=O)N1CC2CC1CC2n1nc(-c2ccc(Oc3ccccc3)cc2)c2c(N)ncnc21 (stereo not drawn) [Ex. 12, 1-(5-(4-amino-3-(4-phenoxyphenyl)-1H-pyrazolo[3,4-d]pyrimidin-1-yl)-2-azabicyclo[2.2.1]heptan-2-yl)prop-2-en-1-one] | > 1000 nM | >303.3 | 3.3 nM
5 | C=CC(=O)N1CC2CC1C(n1nc(-c3ccc(C(=O)Nc4cccc(C(C)C)c4)cc3)c3c(N)ncnc31)C2 (stereo not drawn) [Ex. 47, 4-(1-(2-acryloyl-2-azabicyclo[2.2.1]heptan-6-yl)-4-amino-1H-pyrazolo[3,4-d]pyrimidin-3-yl)-N-(3-isopropylphenyl)benzamide] |  |  | 10.9 nM
6 | C=CC(=O)N1CC2CC1C(n1nc(-c3ccc(NC(=O)c4cccc(N(C)C)c4)cc3)c3c(N)ncnc31)C2 (stereo not drawn) [Ex. 50, N-(4-(1-(2-acryloyl-2-azabicyclo[2.2.1]heptan-6-yl)-4-amino-1H-pyrazolo[3,4-d]pyrimidin-3-yl)phenyl)-3-(dimethylamino)benzamide] |  |  | 28.6 nM
7 | C=CC(=O)N1CC2CC1C(n1nc(-c3ccc(Oc4cccc(N)c4)cc3)c3c(N)ncnc31)C2 (stereo not drawn) [Ex. 51, 1-(6-(4-amino-3-(4-(3-aminophenoxy)phenyl)-1H-pyrazolo[3,4-d]pyrimidin-1-yl)-2-azabicyclo[2.2.1]heptan-2-yl)prop-2-en-1-one hydrochloride] |  |  | 107 nM
8 | C=CC(=O)N1CC2CC1C(n1nc(-c3ccc(C(=O)Nc4ccccc4)cc3F)c3c(N)ncnc31)C2 (stereo not drawn) [Ex. 52, 4-(1-(2-acryloyl-2-azabicyclo[2.2.1]heptan-6-yl)-4-amino-1H-pyrazolo[3,4-d]pyrimidin-3-yl)-3-fluoro-N-phenylbenzamide] |  |  | 5.1 nM
9 | C=CC(=O)N1CC2CC1C(n1nc(-c3ccc(C(=O)Nc4ccccc4N(C)C)cc3)c3c(N)ncnc31)C2 (stereo not drawn) [Ex. 55, 4-(1-(2-acryloyl-2-azabicyclo[2.2.1]heptan-6-yl)-4-amino-1H-pyrazolo[3,4-d]pyrimidin-3-yl)-N-(2-(dimethylamino)phenyl)benzamide] |  |  | 8.5 nM
10 | C=CC(=O)N1CC2CC1C(n1nc(-c3ccc(C(=O)Nc4cnn(C)c4)cc3)c3c(N)ncnc31)C2 (stereo not drawn) [Ex. 56, 4-(1-(2-acryloyl-2-azabicyclo[2.2.1]heptan-6-yl)-4-amino-1H-pyrazolo[3,4-d]pyrimidin-3-yl)-N-(1-methyl-1H-pyrazol-4-yl)benzamide] |  |  | 143 nM
11 | C=CC(=O)N1CC2CC1C(n1nc(-c3ccc(NC(=O)c4ccccc4N(C)C)cc3)c3c(N)ncnc31)C2 (stereo not drawn) [Ex. 57, N-(4-(1-(2-acryloyl-2-azabicyclo[2.2.1]heptan-6-yl)-4-amino-1H-pyrazolo[3,4-d]pyrimidin-3-yl)phenyl)-2-(dimethylamino)benzamide] |  |  | 8.8 nM
12 | Nc1ncnc2c1c(-c1ccc(Oc3ccccc3)cc1)nn2C1CC2CC1N(C(=O)/C=C/CN1CCOCC1)C2 (stereo not drawn) [Ex. 58, (E)-1-(6-(4-amino-3-(4-phenoxyphenyl)-1H-pyrazolo[3,4-d]pyrimidin-1-yl)-2-azabicyclo[2.2.1]heptan-2-yl)-4-morpholinobut-2-en-1-one] |  |  | 5.3 nM
13 | CN(C)C/C=C/C(=O)N1CC2CC1C(n1nc(-c3ccc(C(=O)Nc4ccccn4)cc3)c3c(N)ncnc31)C2 (stereo not drawn) [Ex. 60, (E)-4-(4-amino-1-(2-(4-(dimethylamino)but-2-enoyl)-2-azabicyclo[2.2.1]heptan-6-yl)-1H-pyrazolo[3,4-d]pyrimidin-3-yl)-N-(pyridin-2-yl)benzamide] |  |  | 36.4 nM
14 | CN1CCN(C/C=C/C(=O)N2CC3CC2C(n2nc(-c4ccc(C(=O)Nc5ccccn5)cc4)c4c(N)ncnc42)C3)CC1 (stereo not drawn) [Ex. 61, (E)-4-(4-amino-1-(2-(4-(4-methylpiperazin-1-yl)but-2-enoyl)-2-azabicyclo[2.2.1]heptan-6-yl)-1H-pyrazolo[3,4-d]pyrimidin-3-yl)-N-(pyridin-2-yl)benzamide] |  |  | 136 nM
15 | CN1CCN(C/C=C/C(=O)N2CC3CC2C(n2nc(-c4ccc(Oc5ccccc5)cc4)c4c(N)ncnc42)C3)CC1 (stereo not drawn) [Ex. 62, (E)-1-(6-(4-amino-3-(4-phenoxyphenyl)-1H-pyrazolo[3,4-d]pyrimidin-1-yl)-2-azabicyclo[2.2.1]heptan-2-yl)-4-(4-methylpiperazin-1-yl)but-2-en-1-one] |  |  | 5.8 nM
16 | Nc1ncnc2c1c(-c1ccc(Oc3ccccc3)cc1)nn2C1CC2CC1CN2C(=O)/C=C/CBr (stereo not drawn) [Ex. 65, (E)-1-(5-(4-amino-3-(4-phenoxyphenyl)-1H-pyrazolo[3,4-d]pyrimidin-1-yl)-2-azabicyclo[2.2.1]heptan-2-yl)-4-bromobut-2-en-1-one] |  |  | 6.7 nM
17 | Nc1ncnc2c1c(-c1ccc(Oc3ccccc3)cc1)nn2C1CC2CC1CN2C(=O)/C=C/CN1CCCCC1 (stereo not drawn) [Ex. 66, (E)-1-(5-(4-amino-3-(4-phenoxyphenyl)-1H-pyrazolo[3,4-d]pyrimidin-1-yl)-2-azabicyclo[2.2.1]heptan-2-yl)-4-(piperidin-1-yl)but-2-en-1-one] |  |  | 49.6 nM
18 | C=CC(=O)N1CC2CC1C(n1nc(-c3ccc(C(=O)Nc4cccc(C(F)(F)F)n4)cc3)c3c(N)ncnc31)C2 (stereo not drawn) [Ex. 70, 4-(1-(2-acryloyl-2-azabicyclo[2.2.1]heptan-6-yl)-4-amino-1H-pyrazolo[3,4-d]pyrimidin-3-yl)-N-(6-(trifluoromethyl)pyridin-2-yl)benzamide] |  |  | 6.3 nM
19 | C=CC(=O)N1C[C@@H]2C[C@H]1[C@@H](n1nc(-c3ccc(C(=O)Nc4cc(F)ccn4)cc3F)c3c(N)ncnc31)C2 [Ex. 73, 4-(1-((1S,4R,6S)-2-acryloyl-2-azabicyclo[2.2.1]heptan-6-yl)-4-amino-1H-pyrazolo[3,4-d]pyrimidin-3-yl)-3-fluoro-N-(4-fluoropyridin-2-yl)benzamide] |  |  | 1.1 nM
20 | N#CCC(=O)N1C[C@@H]2C[C@@H]1[C@@H](n1nc(-c3ccc(C(=O)Nc4ccccn4)cc3)c3c(N)ncnc31)C2 [Ex. 74, 4-(4-amino-1-((1R,4R,6S)-2-(2-cyanoacetyl)-2-azabicyclo[2.2.1]heptan-6-yl)-1H-pyrazolo[3,4-d]pyrimidin-3-yl)-N-(pyridin-2-yl)benzamide] |  |  | 123 nM
21 | CC(C)C=C(C#N)C(=O)N1C[C@H]2CC(n3nc(-c4ccc(C(=O)Nc5ccccn5)cc4)c4c(N)ncnc43)[C@H]1C2 (stereo partly drawn) [Ex. 76, 4-(4-amino-1-((1R,4R)-2-(2-cyano-4-methylpent-2-enoyl)-2-azabicyclo[2.2.1]heptan-6-yl)-1H-pyrazolo[3,4-d]pyrimidin-3-yl)-N-(pyridin-2-yl)benzamide] |  |  | 10 nM
22 | C=CC(=O)N1C[C@@H]2C[C@H]1[C@@H](n1nc(-c3ccc(C(=O)Nc4ncccc4C)cc3)c3c(N)ncnc31)C2 [Ex. 77, 4-(1-((1S,4R,6S)-2-acryloyl-2-azabicyclo[2.2.1]heptan-6-yl)-4-amino-1H-pyrazolo[3,4-d]pyrimidin-3-yl)-N-(3-methylpyridin-2-yl)benzamide] |  |  | 6.4 nM
23 | C=CC(=O)N1C[C@@H]2C[C@H]1[C@@H](n1nc(-c3ccc(C(=O)Nc4ncccc4C(F)(F)F)cc3)c3c(N)ncnc31)C2 [Ex. 78, 4-(1-((1S,4R,6S)-2-acryloyl-2-azabicyclo[2.2.1]heptan-6-yl)-4-amino-1H-pyrazolo[3,4-d]pyrimidin-3-yl)-N-(3-(trifluoromethyl)pyridin-2-yl)benzamide] |  |  | 5.2 nM
24 | C=CC(=O)N1C[C@@H]2C[C@H]1[C@@H](n1nc(-c3ccc(C(=O)NC)cc3F)c3c(N)ncnc31)C2 [Ex. 79, 4-(1-((1S,4R,6S)-2-acryloyl-2-azabicyclo[2.2.1]heptan-6-yl)-4-amino-1H-pyrazolo[3,4-d]pyrimidin-3-yl)-3-fluoro-N-methylbenzamide] |  |  | 77.1 nM
25 | C=C(C)C(=O)N1C[C@@H]2C[C@@H]1[C@@H](n1nc(-c3ccc(C(=O)Nc4ccccn4)cc3)c3c(N)ncnc31)C2 [Ex. 84, 4-(4-amino-1-((1R,4R,6S)-2-methacryloyl-2-azabicyclo[2.2.1]heptan-6-yl)-1H-pyrazolo[3,4-d]pyrimidin-3-yl)-N-(pyridin-2-yl)benzamide] |  |  | > 100 nM
